Laboratory results: article PMC8291137 (ACS Medicinal Chemistry Letters, 2021)

Key:
[1] = tested on: Vero E6 cells
[2] = Shake-flask aqueous solubility in Britton-Robinson buffer

Cn1cc(-c2cc(-c3cc(Cl)cc(OCc4scnc4C(F)(F)F)c3)c(=O)n(-c3cccnc3)c2)c(=O)[nH]c1=O [Compound 21]
cytotoxicity (in words) [1]: no cytotoxicity | aqueous solubility (in words) [2]: good aqueous solubility
